Measurements as given in article PMC9816194, “Use of the head-twitch response to investigate the structure–activity relationships of 4-thio-substituted 2,5-dimethoxyphenylalkylamines” (Psychopharmacology, 2022).
Like-named read-outs stand apart in the source and are kept apart here.

What was measured:
[1] = test system: humans; conditions: cited from earlier work; for Human potency range: dose range active as psychedelic in humans
[2] = molecular target: T1, h5-HT2C receptors (Homo sapiens, UniProt P28335); experiment: 5-HT2C receptor binding, [3H]mesulergine displacement
T1 construct: expressed in transfected cells; host or cells: HEK 293 (transient), membrane preparations
T1 sequence (P28335 33-458): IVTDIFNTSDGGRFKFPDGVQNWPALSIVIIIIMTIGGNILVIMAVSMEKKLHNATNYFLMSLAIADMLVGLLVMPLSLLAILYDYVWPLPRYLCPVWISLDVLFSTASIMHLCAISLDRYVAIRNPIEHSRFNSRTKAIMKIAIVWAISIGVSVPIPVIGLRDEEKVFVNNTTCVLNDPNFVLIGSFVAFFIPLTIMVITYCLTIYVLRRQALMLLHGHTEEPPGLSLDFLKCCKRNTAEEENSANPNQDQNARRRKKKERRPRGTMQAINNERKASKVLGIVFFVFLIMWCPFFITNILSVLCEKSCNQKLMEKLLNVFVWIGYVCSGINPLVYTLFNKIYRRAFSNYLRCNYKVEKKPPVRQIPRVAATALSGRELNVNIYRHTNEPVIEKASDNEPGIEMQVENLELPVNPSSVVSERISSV
Procedure: (§1) 5-HT receptor binding affinities were assessed as previously described in detail (Luethi et al. [2018]). In brief, membrane preparations of transiently transfected HEK 293 cells were incubated with selective radioligands at concentrations equal to the corresponding Kd and then ligand displacement by the test drugs was measured. The difference between the total binding and the nonspecific binding determined in the presence of selective competitors was defined as specific binding. The following radioligands and competitors, respectively, were used: 0.40 nM [^3H]ketanserin and 10 μM spiperone (serotonin 5-HT2A receptor), 1.4 nM [^3H]mesulergine and 10 μM mianserin (serotonin 5-HT2C receptor). The IC50 values of the radioligand binding assays were determined using nonlinear regression curves for every drug in a one-site model. Ki values corresponding to the dissociation constants were calculated with the Cheng-Prusoff equation.

[3] = test system: male C57BL/6 J mice; experiment: Head-twitch response (HTR), magnetometer coil recording; format: in vivo; conditions: for HTR Counts (Mean ± SEM): 30 min; for ED50: Mus musculus, 0.5 h, HTR, IP, 30 min recording, male C57BL/6 J mice; for maximum number of head twitches (mean ± SEM): during the 30-min assessment period; for reduction of HTR potency versus 2C-T-7: replacement of the 4-n-propylthio group of 2C-T-7
Procedure: Male C57BL/6 J mice (Jackson Laboratory, Bar Harbor, ME) were housed in a vivarium at the University of California San Diego (UCSD), which is an AAALAC-approved animal facility that complies with Federal and State requirements for care and treatment of laboratory animals. The mice (6–8 weeks old) were housed in a climate-controlled room with a reversed light-cycle (lights on at 19:00 h, off at 07:00 h) up to 4 animals per cage. Food and water were provided ad libitum, except during behavioral testing which occurred between 10:00 and 18:00 h. All experiments were conducted according to NIH guidelines and were approved by the UCSD animal care committee.
Head movement was recorded using a head-mounted magnet and a magnetometer coil (Halberstadt and Geyer [2013]). Briefly, mice were anesthetized, a small incision was made in the scalp, and a neodymium magnet was attached to the dorsal surface of the cranium using dental cement. Following a 1–2-week recovery period, behavioral experiments were conducted in a well-lit room with at least 7 days between sessions to avoid any carryover effects. Mice were treated with vehicle or test compound and then placed in a glass cylinder surrounded by a magnetometer coil and activity was recorded for 30 min. All test substances were administered IP dissolved in saline using an injection volume of 5 mL/kg. Coil voltage was filtered (5–10 kHz lowpass), digitized (20 kHz sampling rate), and saved to disk using a Powerlab/8SP with LabChart v 7.3.2 (ADInstruments, Colorado Springs, CO). To detect head twitches, events in the recordings were converted into scalograms using a wavelet transform and then the images were classified using a multistage approach combining the deep convolutional neural network (CNN) ResNet-50 with a support vector machine (SVM) algorithm (Halberstadt [2020]). HTR counts were analyzed using a one-way Welch analysis of variance (ANOVA). Post hoc pairwise comparisons were performed using Dunnett’s test. […] Median effective doses (ED50 values) and 95% confidence intervals were calculated using nonlinear regression (Prism ver. 9.0.2, GraphPad Software Inc, San Diego, CA, USA).

[4] = molecular target: T2, human 5-HT2A receptor (Homo sapiens, UniProt P28223); experiment: 5-HT2A receptor binding, [3H]ketanserin displacement; set-up: expressed in transfected cells; host or cells: HEK 293 (transient), membrane preparations
Procedure: as §1

[5] = molecular target: T3, human 5-HT2B receptor (Homo sapiens, UniProt P41595); experiment: Agonist activity at the 5-HT2B receptor, FLIPR calcium flux in HEK 293 cells; format: cell-based
T3 construct: expressed in transfected cells
Procedure: HEK 293 cells stably expressing the human 5-HT2B receptor were incubated overnight in poly-D-lysine-coated 96-well plates at a density of 50,000 cells per well and 37 °C. Thereafter, the growth medium was removed by snap inversion and 200 μL of no wash dye (FLIPR calcium 6 assay kit; Molecular Devices, Sunnyvale, CA, USA) was added to each well. The plates were incubated for 2 h at 37 °C and then placed into a FLIPR. Fifty microliters of the test drugs diluted in assay buffer was added to each well online and the increase in fluorescence was measured for 51 s. EC50 values were derived from the concentration–response curves using nonlinear regression.

[6] = molecular target: T2, human 5-HT2A receptor; experiment: Agonist activity at the 5-HT2A receptor, FLIPR calcium flux in NIH-3T3 cells; format: cell-based; set-up: expressed in transfected cells
Procedure: NIH-3T3 cells stably expressing the human 5-HT2A receptor were incubated in HEPES-Hank’s Balanced Salt Solution (HBSS) buffer (Gibco, Zug, Switzerland; 70,000 cells/100 μL) for 1 h at 37 °C in poly-D-lysine-coated 96-well plates. Thereafter, 100 μL of dye solution (fluorescence imaging plate reader [FLIPR] calcium 5 assay kit dye solution; Molecular Devices, Sunnyvale, CA, USA) was added to each well and the plates were incubated for 1 h at 37 °C. The plates were then placed into a FLIPR and 25 μL of the test drugs diluted in HEPES-HBSS containing 250 mM probenicid was added to each well online. The increase in fluorescence was measured for 51 s, and EC50 values were derived from the concentration–response curves using nonlinear regression.

[7] = molecular target: T2, human 5-HT2A receptor; set-up: expressed in transfected cells; host or cells: HEK 293 (transient), membrane preparations; conditions: read-out: 5-HT2A Ki; [3H]ketanserin; ref Luethi et al. (2018); cited from earlier work
[8] = test system: mice; conditions: ref Gonzalez-Maeso et al. 2007; Halberstadt and Geyer 2013; cited from earlier work
[9] = read-out: ED50 µmol/kg (95% CI)
[10] = p.o., ref Shulgin and Shulgin 1991, Trachsel et al. 2013

T2 sequence (P28223 whole entry): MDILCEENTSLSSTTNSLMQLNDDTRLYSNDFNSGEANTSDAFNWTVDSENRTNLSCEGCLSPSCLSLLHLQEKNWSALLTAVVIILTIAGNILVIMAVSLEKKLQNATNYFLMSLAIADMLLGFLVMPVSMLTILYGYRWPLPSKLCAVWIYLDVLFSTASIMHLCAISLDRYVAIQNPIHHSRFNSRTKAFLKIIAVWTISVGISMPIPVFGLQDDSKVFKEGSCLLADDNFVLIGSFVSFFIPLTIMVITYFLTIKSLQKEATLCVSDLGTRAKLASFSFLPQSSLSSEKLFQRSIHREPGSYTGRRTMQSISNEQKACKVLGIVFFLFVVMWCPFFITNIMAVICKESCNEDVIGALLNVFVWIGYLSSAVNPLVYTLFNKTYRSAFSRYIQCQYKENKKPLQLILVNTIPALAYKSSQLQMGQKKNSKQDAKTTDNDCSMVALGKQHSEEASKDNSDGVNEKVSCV
T3 sequence (P41595 whole entry): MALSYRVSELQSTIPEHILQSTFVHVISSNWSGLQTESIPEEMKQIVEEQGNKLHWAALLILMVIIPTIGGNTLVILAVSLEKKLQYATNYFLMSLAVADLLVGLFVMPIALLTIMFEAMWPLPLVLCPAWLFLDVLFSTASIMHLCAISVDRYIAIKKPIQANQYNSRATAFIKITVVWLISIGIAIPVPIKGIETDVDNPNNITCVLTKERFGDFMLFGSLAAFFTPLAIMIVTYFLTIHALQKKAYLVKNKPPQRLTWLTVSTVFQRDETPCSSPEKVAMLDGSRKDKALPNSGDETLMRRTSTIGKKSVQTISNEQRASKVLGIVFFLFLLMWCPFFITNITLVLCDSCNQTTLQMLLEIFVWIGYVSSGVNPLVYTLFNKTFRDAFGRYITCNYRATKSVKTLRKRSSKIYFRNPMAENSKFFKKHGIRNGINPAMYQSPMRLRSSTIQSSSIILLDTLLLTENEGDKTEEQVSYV

Compound | HTR Counts (Mean ± SEM) ([3]; 0.3 mg/kg IP) | HTR Counts (Mean ± SEM) ([3]; 1 mg/kg IP) | HTR Counts (Mean ± SEM) ([3]; 3 mg/kg IP) | HTR Counts (Mean ± SEM) ([3]; 10 mg/kg IP) | ED50 [3, 9] | ED50 ([3]; read-out: ED50 mg/kg (95% CI)) | HTR Counts (Mean ± SEM) ([3]; 1.5 mg/kg IP) | HTR Counts (Mean ± SEM) ([3]; 6 mg/kg IP) | HTR Counts (Mean ± SEM) ([3]; 12 mg/kg IP) | Ki [7] | other results
COc1cc(SC)c(OC)cc1CC(C)N.Cl (centres unmarked) [ALEPH, 2,5-Dimethoxy-4-methylthioamphetamine hydrochloride] | 19.4 ± 1.2 | 72.0 ± 12.1 | 115.0 ± 20.9 | 74.0 ± 13.5 | 2.88 µmol/kg | 0.8 mg/kg | – | – | – | – | Human active dose range ([1]; ref Shulgin and Nichols 1978, Shulgin and Shulgin 1991): 5 to 15 mg; Ki [2]: 355 ± 76 nM; HTR Counts (Mean ± SEM) ([3]; 0.1 mg/kg IP): 7.8 ± 1.2; Ki [4]: 77.8 nM; EC50 [5]: 19.2 ± 1.7 nM; Emax ([5]; HEK293, calcium flux, read-out: h5-HT2B Emax): 51 ± 2.6%; EC50 [6]: 10.3 ± 0.6 nM; Emax ([6]; NIH3T3, calcium flux, relative to 5-HT, read-out: h5-HT2A Emax): 80 ± 2.3%
COc1cc(SC)c(OC)cc1CCN.Cl [Compound 2C-T, 2,5-Dimethoxy-4-methylthiophenethylamine hydrochloride] | – | – | 49.3 ± 3.1 | – | 13.8 µmol/kg | 3.65 mg/kg | 22.4 ± 5.9 | 61.0 ± 4.7 | 97.2 ± 8.1 | 49 nM | Human potency range ([1]; ref Shulgin and Shulgin (1991)): 60–100 mg ^[5]; Human active dose range ([1]; ref Shulgin and Shulgin 1991, Shulgin et al. 1991): 60 to 100 mg; HTR Counts (Mean ± SEM) ([3]; 24 mg/kg IP): 64.8 ± 6.0; maximum number of head twitches (mean ± SEM) [3]: 97.2 ± 8.1
C=C(C)CSc1cc(OC)c(CCN)cc1OC.Cl [Compound 2C-T-3, 2,5-dimethoxy-4-methallylthiophenethylamine hydrochloride] | 11.3 ± 3.6 | 26.2 ± 3.4 | 67.6 ± 5.4 | 67.8 ± 7.5 | 6.12 µmol/kg | 1.86 mg/kg | – | – | – | 11 nM | HTR Counts (Mean ± SEM) ([3]; 30 mg/kg IP): 2.2 ± 1.4; reduction of HTR potency versus 2C-T-7 [3]: more than 50%
C=CCSc1cc(OC)c(CCN)cc1OC.Cl [Compound 2C-T-16, 4-allylthio-2,5-dimethoxyphenethylamine hydrochloride] | – | – | 101.6 ± 20.4 | – | 5.8 µmol/kg | 1.68 mg/kg | 49.6 ± 11.1 | 100.6 ± 9.6 | 51.2 ± 18.3 | 9.2 nM | HTR potency relative to 2C-T-7 ([3]; mouse, in vivo): about 50%; reduction of HTR potency versus 2C-T-7 [3]: more than 50%
CCCCSc1cc(OC)c(CCN)cc1OC.Cl [Compound 2C-T-19, 4-n-butylthio-2,5-dimethoxyphenethylamine hydrochloride] | 14.2 ± 3.4 | 19.8 ± 1.1 | 26.6 ± 9.4 | 12.0 ± 4.1 | 3.27 µmol/kg | 1 mg/kg | – | – | – | 6.9 nM | maximum number of head twitches (mean ± SEM) [3]: 26.6 ± 9.4
COc1cc(SCC(F)F)c(OC)cc1CCN.Cl [Compound 2C-T-21.5, 4-(2,2-difluoroethylthio)-2,5-dimethoxyphenethylamine hydrochloride] | – | – | 39.4 ± 7.2 | – | 9.97 µmol/kg | 3.13 mg/kg | 26.0 ± 5.4 | 85.6 ± 9.8 | 40.4 ± 13.0 | 14 nM | Human potency range ([1]; ref Trachsel et al. (2013)): 12–30 mg ^[6]; Human active dose range [1, 10]: 12 to 30 mg
COc1cc(SCCCF)c(OC)cc1CCN.Cl [Compound 2C-T-28, 4-(3-fluoropropylthio)-2,5-dimethoxyphenethylamine hydrochloride] | 7.4 ± 2.0 | 25.4 ± 4.1 | 42.0 ± 6.1 | 27.2 ± 7.4 | 3.49 µmol/kg | 1.08 mg/kg | – | – | – | 17 nM | Human active dose range [1, 10]: 8 to 20 mg
CCN(CC)C(=O)[C@@H]1C=C2c3cccc4[nH]cc(c34)C[C@H]2N(C)C1 [LSD, lysergic acid diethylamide, reference compound] | – | – | – | – | – | – | – | – | – | – | induction of HTR (in words) [8]: induces the HTR
COc1cc(CC(C)N)cc(OC)c1OC (centres unmarked) [TMA, 3,4,5-trimethoxyamphetamine, reference compound] | – | – | – | – | – | – | – | – | – | – | Human potency range ([1]; ref Shulgin and Shulgin (1991)): 100 to 250 mg
CCN(CC)C(=O)N[C@H]1C=C2c3cccc4[nH]cc(c34)C[C@H]2N(C)C1 [lisuride, reference compound] | – | – | – | – | – | – | – | – | – | – | induction of HTR (in words) [8]: does not induce the response
